Source: ChEMBL document CHEMBL4619828, “Discovery of Potent and Orally Bioavailable Small Molecule Antagonists of Toll-like Receptors 7/8/9 (TLR7/8/9)” (ACS Med Chem Lett, 2020)

Experiments:
Assay type in all cases: cell-based
[1] = biological target: T1, Toll-like receptor 7 (Homo sapiens, UniProt Q9NYK1); experiment: Antagonist activity at human TLR7 overexpressed in HEK-Blue cells assessed as inhibition of gardiquimod-induced NFkappaB and AP-1 activation preincubated for 30 mins followed by gardiquimod stimulation measured after 22 hrs by quanti-blue SEAP assay
T1 sequence (Q9NYK1 whole entry): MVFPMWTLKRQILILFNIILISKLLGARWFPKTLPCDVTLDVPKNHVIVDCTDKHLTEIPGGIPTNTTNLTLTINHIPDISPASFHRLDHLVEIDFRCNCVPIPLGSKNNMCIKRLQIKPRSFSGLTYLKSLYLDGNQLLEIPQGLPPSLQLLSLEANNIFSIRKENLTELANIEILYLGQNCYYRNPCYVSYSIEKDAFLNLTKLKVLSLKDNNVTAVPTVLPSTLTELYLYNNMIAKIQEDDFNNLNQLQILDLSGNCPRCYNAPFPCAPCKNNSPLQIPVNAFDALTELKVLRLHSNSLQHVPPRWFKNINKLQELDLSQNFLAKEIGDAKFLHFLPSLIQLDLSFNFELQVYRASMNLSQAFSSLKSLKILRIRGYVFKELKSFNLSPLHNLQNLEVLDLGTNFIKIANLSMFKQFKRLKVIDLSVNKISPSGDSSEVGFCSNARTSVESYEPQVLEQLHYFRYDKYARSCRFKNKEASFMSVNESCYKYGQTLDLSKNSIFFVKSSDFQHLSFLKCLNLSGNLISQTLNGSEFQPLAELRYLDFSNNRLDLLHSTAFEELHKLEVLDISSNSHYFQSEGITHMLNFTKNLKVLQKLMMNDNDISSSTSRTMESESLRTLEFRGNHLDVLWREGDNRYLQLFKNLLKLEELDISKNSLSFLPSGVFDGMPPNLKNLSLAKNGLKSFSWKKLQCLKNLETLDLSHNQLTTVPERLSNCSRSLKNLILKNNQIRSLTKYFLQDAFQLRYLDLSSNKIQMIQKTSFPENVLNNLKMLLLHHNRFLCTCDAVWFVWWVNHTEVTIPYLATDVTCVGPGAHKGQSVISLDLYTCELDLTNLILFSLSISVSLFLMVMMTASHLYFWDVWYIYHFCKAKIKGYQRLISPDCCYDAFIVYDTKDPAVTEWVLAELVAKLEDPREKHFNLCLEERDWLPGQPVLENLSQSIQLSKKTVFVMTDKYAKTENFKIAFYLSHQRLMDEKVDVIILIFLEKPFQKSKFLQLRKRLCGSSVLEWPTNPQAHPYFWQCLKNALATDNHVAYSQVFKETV

[2] = biological target: T2, Toll-like receptor 9 (Homo sapiens, UniProt Q9NR96); experiment: Antagonist activity at human TLR9 overexpressed in HEK-Blue cells assessed as inhibition of ODN2006-induced NFkappaB and AP-1 activation preincubated for 30 mins followed by ODN2006 stimulation measured after 22 hrs by quanti-blue SEAP assay
T2 sequence (Q9NR96 whole entry): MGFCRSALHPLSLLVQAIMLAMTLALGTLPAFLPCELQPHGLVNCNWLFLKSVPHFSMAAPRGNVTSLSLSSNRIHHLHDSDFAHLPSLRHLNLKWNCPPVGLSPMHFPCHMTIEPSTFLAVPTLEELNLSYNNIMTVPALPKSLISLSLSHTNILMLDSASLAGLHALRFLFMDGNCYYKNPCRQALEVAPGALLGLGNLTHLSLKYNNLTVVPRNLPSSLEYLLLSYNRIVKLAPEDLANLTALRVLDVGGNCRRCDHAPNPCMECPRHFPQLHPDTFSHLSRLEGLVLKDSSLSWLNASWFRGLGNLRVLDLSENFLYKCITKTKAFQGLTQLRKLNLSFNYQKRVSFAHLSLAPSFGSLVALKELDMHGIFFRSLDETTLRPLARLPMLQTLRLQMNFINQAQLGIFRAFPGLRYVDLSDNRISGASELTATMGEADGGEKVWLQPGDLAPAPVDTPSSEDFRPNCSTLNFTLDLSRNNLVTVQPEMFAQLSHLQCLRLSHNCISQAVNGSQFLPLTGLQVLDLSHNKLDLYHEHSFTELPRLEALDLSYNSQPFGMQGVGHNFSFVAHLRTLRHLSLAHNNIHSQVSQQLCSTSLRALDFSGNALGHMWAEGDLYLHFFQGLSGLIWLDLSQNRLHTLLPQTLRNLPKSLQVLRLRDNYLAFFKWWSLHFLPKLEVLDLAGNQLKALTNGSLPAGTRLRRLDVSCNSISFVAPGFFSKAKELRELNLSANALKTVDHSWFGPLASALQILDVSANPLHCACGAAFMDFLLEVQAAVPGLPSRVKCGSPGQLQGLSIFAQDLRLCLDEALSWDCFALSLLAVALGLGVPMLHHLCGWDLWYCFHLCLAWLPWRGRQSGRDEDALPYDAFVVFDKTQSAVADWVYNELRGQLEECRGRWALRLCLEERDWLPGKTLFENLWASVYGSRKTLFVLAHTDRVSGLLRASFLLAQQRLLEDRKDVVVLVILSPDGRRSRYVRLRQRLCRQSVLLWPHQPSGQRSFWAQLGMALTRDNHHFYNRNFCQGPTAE

[3] = biological target: T3, Toll-like receptor 3 (Homo sapiens, UniProt O15455); experiment: Antagonist activity at human TLR3 overexpressed in HEK-Blue cells assessed as inhibition of Poly IC-induced NFkappaB and AP-1 activation preincubated for 30 mins followed by Poly IC stimulation measured after 22 hrs by quanti-blue SEAP assay
T3 sequence (O15455 whole entry): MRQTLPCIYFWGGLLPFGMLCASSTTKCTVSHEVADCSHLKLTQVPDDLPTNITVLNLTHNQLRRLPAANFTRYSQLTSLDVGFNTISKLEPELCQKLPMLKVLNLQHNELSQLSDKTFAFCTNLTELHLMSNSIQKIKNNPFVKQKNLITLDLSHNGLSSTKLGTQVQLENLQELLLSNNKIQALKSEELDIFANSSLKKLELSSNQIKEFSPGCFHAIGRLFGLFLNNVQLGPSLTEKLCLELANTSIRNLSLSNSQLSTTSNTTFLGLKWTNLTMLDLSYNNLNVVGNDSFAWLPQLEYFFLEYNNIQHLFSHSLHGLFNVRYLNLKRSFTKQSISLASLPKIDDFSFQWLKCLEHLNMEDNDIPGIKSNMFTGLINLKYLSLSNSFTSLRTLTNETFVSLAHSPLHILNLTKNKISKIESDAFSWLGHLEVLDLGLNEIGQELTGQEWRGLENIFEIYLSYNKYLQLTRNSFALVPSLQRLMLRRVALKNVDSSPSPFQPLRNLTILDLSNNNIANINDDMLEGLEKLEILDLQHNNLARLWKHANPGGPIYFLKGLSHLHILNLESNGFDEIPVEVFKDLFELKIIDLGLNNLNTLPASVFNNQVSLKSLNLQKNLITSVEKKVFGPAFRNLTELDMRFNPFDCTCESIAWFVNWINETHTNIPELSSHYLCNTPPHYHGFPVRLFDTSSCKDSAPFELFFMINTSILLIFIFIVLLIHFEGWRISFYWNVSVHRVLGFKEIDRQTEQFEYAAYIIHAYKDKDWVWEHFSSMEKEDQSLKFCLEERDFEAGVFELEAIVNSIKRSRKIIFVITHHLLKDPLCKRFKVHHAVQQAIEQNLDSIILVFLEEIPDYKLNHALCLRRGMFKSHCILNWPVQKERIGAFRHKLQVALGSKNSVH

[4] = biological target: Toll-like receptor 4 (Homo sapiens, UniProt O00206); experiment: Antagonist activity at human TLR4 overexpressed in HEK-Blue cells assessed as inhibition of […] induced NFkappaB and AP-1 activation preincubated for 30 mins followed by […] stimulation measured after 22 hrs by quanti-blue SEAP assay
Toll-like receptor 4, sequence (O00206 whole entry): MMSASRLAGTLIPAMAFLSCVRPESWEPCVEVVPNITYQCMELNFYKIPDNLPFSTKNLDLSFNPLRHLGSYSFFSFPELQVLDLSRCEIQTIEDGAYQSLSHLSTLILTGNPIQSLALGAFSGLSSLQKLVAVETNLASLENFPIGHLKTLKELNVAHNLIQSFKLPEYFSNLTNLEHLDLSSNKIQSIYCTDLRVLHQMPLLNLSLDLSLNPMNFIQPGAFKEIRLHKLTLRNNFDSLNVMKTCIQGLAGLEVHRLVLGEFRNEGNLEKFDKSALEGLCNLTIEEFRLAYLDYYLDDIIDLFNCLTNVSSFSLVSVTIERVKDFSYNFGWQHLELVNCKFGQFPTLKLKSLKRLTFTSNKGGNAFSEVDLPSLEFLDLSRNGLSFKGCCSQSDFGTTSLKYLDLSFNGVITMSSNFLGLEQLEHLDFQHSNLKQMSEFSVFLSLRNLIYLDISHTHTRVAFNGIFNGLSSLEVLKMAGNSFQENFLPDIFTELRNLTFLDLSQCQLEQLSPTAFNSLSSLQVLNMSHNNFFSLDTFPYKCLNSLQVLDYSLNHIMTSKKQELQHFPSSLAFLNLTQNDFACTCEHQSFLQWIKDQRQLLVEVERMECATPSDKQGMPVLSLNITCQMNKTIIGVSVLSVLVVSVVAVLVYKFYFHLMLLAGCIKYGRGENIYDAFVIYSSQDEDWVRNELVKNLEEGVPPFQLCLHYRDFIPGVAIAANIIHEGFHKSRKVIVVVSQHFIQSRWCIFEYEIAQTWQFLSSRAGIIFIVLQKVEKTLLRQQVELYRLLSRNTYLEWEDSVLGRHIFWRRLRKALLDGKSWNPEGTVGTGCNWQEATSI

[5] = biological target: T4, Toll-like receptor 9 (Homo sapiens) (UniProt Q9NR96); experiment: Antagonist activity at human TLR9 overexpressed in HEK-Blue cells assessed as inhibition of ODN2006-induced NFkappaB and AP-1 activation at 10 uM preincubated for 30 mins followed by ODN2006 stimulation measured after 22 hrs by quanti-blue SEAP assay relative to control
T4 sequence (whole entry): T2 sequence (Q9NR96 whole entry)

SMILES	IC50 [1] [nM]	IC50 [2] [nM]	further results
CNCCN1CCC(c2ccc3[nH]c(-c4ccc(OC)c(OC)c4)c(C)c3c2)CC1	250	430	IC50 [3]: 2160 nM; IC50 [4]: 15 µM
CNCCN1CCC(c2ccc3[nH]c(-c4ccccc4)c(C)c3c2)CC1	> 10000	1800	
CNCCN1CCC(c2ccc3[nH]c(-c4ccccc4OC)c(F)c3c2)CC1	610	23300	inhibition [5]: < 5%
CNCCN1CCC(c2ccc3[nH]c(-c4ccc(C)cc4)c(C)c3c2)CC1	> 10000	5390	
CNCCN1CCC(c2ccc3[nH]c(-c4ccc(OC)c(OC)c4)c(C#N)c3c2)CC1	> 10000		
CNCCN1CCC(c2ccc3[nH]c(-c4ccc(OC)cc4)c(C)c3c2)CC1	5460	500	
CNCCN1CCC(c2ccc3[nH]c(-c4ccc5c(c4)OCO5)c(C)c3c2)CC1	650	1200	
COc1ccc(-c2[nH]c3ccc(C4CCN(Cc5nccn5C)CC4)cc3c2C)cc1OC		850	
CCc1c(-c2ccc(OC)c(OC)c2)[nH]c2ccc(C3CCN(CCNC)CC3)cc12	130		
COc1ccc(-c2[nH]c3ccc(C4CCN(Cc5cncn5C)CC4)cc3c2C)cc1OC	920	2710	
CNCCN1CCC(c2ccc3[nH]c(-c4ccc(OC)cc4OC)c(C)c3c2)CC1	> 10000	2330	
CNCCN1CCC(c2ccc3[nH]c(-c4ccccc4Cl)c(F)c3c2)CC1		21700	
CNCCN1CCC(c2ccc3[nH]c(-c4cccc(C#N)c4)c(C)c3c2)CC1	> 10000	460	

Further lines, with some results ahead:

IC50 [1] [nM]	IC50 [2] [nM]	SMILES	further results
16600	270	CNCCN1CCC(c2ccc3[nH]c(-c4ccc(C(N)=O)cc4)c(C)c3c2)CC1	
1310	> 50000	COc1ccc(-c2[nH]c3ccc(C4CCN(C(C)=O)CC4)cc3c2C)cc1OC	
	2340	COc1ccc(-c2[nH]c3ccc(C4CCN(C5CNC5)CC4)cc3c2C)cc1OC	
	3360	COc1ccc(-c2[nH]c3ccc(C4CCN(Cc5ccncc5)CC4)cc3c2C)cc1OC	
> 10000	2200	CNCCN1CCC(c2ccc3[nH]c(-c4cccc(OC)c4OC)c(C)c3c2)CC1	
> 10000	2140	CNCCN1CCC(c2ccc3[nH]c(-c4ccccc4C)c(C)c3c2)CC1	
850	740	COc1ccc(-c2[nH]c3ccc(C4CCN(CC5CCCCN5C)CC4)cc3c2C)cc1OC (stereo not given)	
6170	1870	CNCCN1CCC(c2ccc3[nH]c(-c4cccc(OC)c4)c(C)c3c2)CC1	
	520	CNCCN1CCC(c2ccc3[nH]c(-c4ccc(C#N)cc4)c(C)c3c2)CC1	
730		COc1ccc(-c2[nH]c3ccc(C4CCN(C5CCN(C)CC5)CC4)cc3c2C)cc1OC	
	1660	CCOc1cc(-c2[nH]c3ccc(C4CCN(CCNC)CC4)cc3c2C)ccc1OC(C)C	
> 10000	1100	CNCCN1CCC(c2ccc3[nH]c(-c4ccccc4OC)c(C)c3c2)CC1	
790	550	CNCCCN1CCC(c2ccc3[nH]c(-c4ccc(OC)c(OC)c4)c(C)c3c2)CC1	
3490		COc1ccc(-c2[nH]c3ccc(C4CCN(Cc5cnc(C)[nH]5)CC4)cc3c2C)cc1OC	
> 10000	2620	CNCCN1CCC(c2ccc3[nH]c(-c4cccc(C)c4)c(C)c3c2)CC1	
70	750	CNCCN1CCC(c2ccc3[nH]c(-c4ccc(OC)c(OC)c4)c(CC(F)(F)F)c3c2)CC1	
	4850	COc1ccc(-c2[nH]c3ccc(C4CCNCC4)cc3c2C)cc1OC	
	430	CNCCN1CCC(c2ccc3[nH]c(-c4ccc(OC)c(OC)c4)c(Cl)c3c2)CC1	
> 10000	600	CNCCN1CCC(c2ccc3[nH]c(-c4ccccc4C#N)c(C)c3c2)CC1	
